# Measured values from patent US4428942A, “Analogs of somatostatin” (The Salk Institute for Biological Studies, priority 1982, dated 1984).
# Read-outs that look alike come from different tables or passages of the source. Bridge positions count the residues as written; N and C are the ends. Square brackets hold non-standard residues; d marks the D form. Peptide text beside a SMILES is read from it.
# Assays:
# secretion of glucagon = tested on: secretion of glucagon; design: species or system rats; settings: in vivo
# Procedure: (§1) In vivo experiments are carried out with the analogs, using the procedure described in Brown et al., Metabolism (1976) Vol. 25, pp. 1501-1503, to determine the potency, relative to somatostatin-14, to inhibit the secretion of glucagon and insulin stimulated by the administration of arginine to groups of six rats.
# isolated rabbit ileum = tested on: isolated rabbit ileum
# Procedure: The analogs are tested in vitro in isolated rabbit ileum using the modified Ussing chamber technique, as described in Amer. J. of Physiol., 225:776-780 (1973). Unidirectional chloride fluxes are determined and used to characterize bi-directional fluxes following the addition of an SS-analog. Changes are measured with varying concentrations, and the potency to inhibit ion transport is quantitated and expressed as a percentage of the potency of SS-14.
# secretion of insulin = settings: in vivo
# Procedure: as §1
# [1] = tested on: release of growth hormone induced by isobutyl methyl xanthine in pituitary cells; type: cell-based, rat
# Procedure: To determine the effectiveness of the peptides to inhibit the release of growth hormone, in vitro radioimmunoassays are carried out using the SS analogs in side-by-side comparison with equimolar concentrations of somatostatin-14 having a known effectiveness to inhibit the release of growth hormone induced by the application of isobutyl methyl xanthine to pituitary cells. Cultures are used which include cells of rat pituitary glands removed some four to five days previously in a system that minimizes enzymatic degradation, generally following the procedure set forth in Vale et al., Methods in Enzymology, Hormones and Cyclic Nucleotides (1975) Vol. 37, p. 82. Both cultures of a defined standard medium and cultures which are considered optimal for the secretion of growth hormone, as a result of having additions of either 2% or 10% of serum from a foetal calf, are used for the comparative testing.
# [2] = cultured rat pituitary cells, isobutyl methyl xanthine-induced release, SS-14 = 100
# [3] = isolated rabbit ileum, Ussing chamber, chloride fluxes, SS-14 = 100
# [4] = arginine-stimulated, rats, SS-14 = 100
Compound,Glucagon (potency to inhibit glucagon secretion relative to SS-14) (secretion of glucagon; rat) [%],Ion Transport (potency to inhibit ion transport expressed as a percentage of the potency of SS-14) (isolated rabbit ileum) [%],Insulin (potency to inhibit insulin secretion relative to SS-14) (secretion of insulin; rat) [%],GH (potency for the inhibition of GH release relative to SS-14) [1] [%],"GH (potency for the inhibition of GH release relative to SS-14) [1, 2] [%]",Ion Transport (potency to inhibit ion transport expressed as a percentage of the potency of SS-14) (isolated rabbit ileum; [3]) [%],Insulin (potency to inhibit insulin secretion relative to SS-14) (secretion of insulin; [4]) [%],Glucagon (potency to inhibit glucagon secretion relative to SS-14) (secretion of glucagon; [4]) [%]
"C[C@H](N)C(=O)NCC(=O)N[C@H]1CSSC[C@@H](C(=O)O)NC(=O)[C@H](CO)NC(=O)[C@H]([C@@H](C)O)NC(=O)[C@H](CCCNC(=N)N)NC(=O)[C@H]([C@@H](C)O)NC(=O)[C@H](CCCCN)NC(=O)[C@H](Cc2c[nH]c3ccccc23)NC(=O)[C@H](Cc2ccccc2)NC(=O)[C@H](Cc2ccccc2)NC(=O)[C@H](CC(N)=O)NC(=O)[C@H](CCCCN)NC1=O [Peptide 2, [Arg^11]--SS] (H-AGCKNFFWKTRTSC-OH; disulfide 3-14)",< 1,291,142,–,–,–,–,–
"C[C@@H](O)[C@@H]1NC(=O)[C@H](Cc2c[nH]c3ccccc23)NC(=O)[C@H]([C@@H](C)O)NC(=O)[C@H](CCCCN)NC(=O)[C@H](Cc2c[nH]c3ccccc23)NC(=O)[C@H](Cc2ccccc2)NC(=O)[C@H](Cc2ccccc2)NC(=O)[C@H](CC(N)=O)NC(=O)[C@H](CCCCN)NC(=O)[C@@H](N)CSSC[C@@H](C(=O)O)NC(=O)[C@H](CO)NC1=O [Peptide 3, des-AA^1,2,[Trp^11]--SS] (H-CKNFFWKTWTSC-OH; disulfide 1-12)",–,405,–,–,–,–,–,–
"C[C@@H](O)[C@@H]1NC(=O)[C@H](CCCCN)NC(=O)[C@@H](Cc2c[nH]c3ccccc23)NC(=O)[C@H](Cc2ccccc2)NC(=O)[C@H](Cc2ccccc2)NC(=O)[C@@H](N)CSSC[C@@H](C(=O)O)NC(=O)[C@H](CO)NC(=O)[C@H](Cc2c[nH]c3ccccc23)NC1=O [Peptide 4, des-AA^1,2,4,5,12,[D-Trp^8,Trp^11]--SS] (H-CFF[dW]KTWSC-OH; disulfide 1-9)",–,37,–,–,–,–,–,–
"C[C@H](N)C(=O)NCC(=O)N[C@H]1CSSC[C@@H](C(=O)O)NC(=O)[C@H](CO)NC(=O)[C@H]([C@@H](C)O)NC(=O)[C@H](C)NC(=O)[C@H]([C@@H](C)O)NC(=O)[C@H](CCCCN)NC(=O)[C@H](Cc2c[nH]c3ccccc23)NC(=O)[C@H](Cc2ccccc2)NC(=O)[C@H](Cc2ccccc2)NC(=O)[C@H](CC(N)=O)NC(=O)[C@H](CCCCN)NC1=O [Peptide 5, [Ala^11]--SS] (H-AGCKNFFWKTATSC-OH; disulfide 3-14)",–,52,< 10,3,–,–,–,–
"C[C@@H](O)[C@@H]1NC(=O)[C@H](CCCCN)NC(=O)[C@@H](Cc2c[nH]c3ccccc23)NC(=O)[C@H](Cc2ccccc2)NC(=O)[C@H](Cc2ccccc2)NC(=O)[C@@H](N)CSSC[C@@H](C(=O)O)NC(=O)[C@H](CO)NC(=O)[C@H](Cc2ccccc2)NC1=O [Peptide 6, des-AA^1,2,4,5,12,[D-Trp^8]--SS] (H-CFF[dW]KTFSC-OH; disulfide 1-9)",20,257,70,45,–,–,–,–
"C[C@H](N)C(=O)NCC(=O)N[C@H]1CSSC[C@@H](C(=O)O)NC(=O)[C@H](CO)NC(=O)[C@H](Cc2ccccc2)NC(=O)[C@H]([C@@H](C)O)NC(=O)[C@H](CCCCN)NC(=O)[C@H](Cc2c[nH]c3ccccc23)NC(=O)[C@H](Cc2ccccc2)NC(=O)[C@H](Cc2ccccc2)NC(=O)[C@H](CC(N)=O)NC(=O)[C@H](CCCCN)NC1=O [Peptide 7, des-Thr^12 --SS] (H-AGCKNFFWKTFSC-OH; disulfide 3-13)",< 1,21,< 1,2,–,–,–,–
"C[C@H](N)C(=O)NCC(=O)N[C@H]1CSSC[C@@H](C(=O)O)NC(=O)[C@H](CO)NC(=O)[C@H]([C@@H](C)O)NC(=O)[C@H]([C@@H](C)O)NC(=O)[C@H](CCCCN)NC(=O)[C@H](Cc2c[nH]c3ccccc23)NC(=O)[C@H](Cc2ccccc2)NC(=O)[C@H](Cc2ccccc2)NC(=O)[C@H](CC(N)=O)NC(=O)[C@H](CCCCN)NC1=O [Peptide 8, des-Phe^11 --SS] (H-AGCKNFFWKTTSC-OH; disulfide 3-13)",< 1,34,< 1,2,–,–,–,–
"C[C@@H](O)[C@@H]1NC(=O)[C@H](Cc2ccccc2)NC(=O)[C@H]([C@@H](C)O)NC(=O)[C@H](CCCCN)NC(=O)[C@H](Cc2c[nH]c3ccccc23)NC(=O)[C@H](Cc2ccccc2)NC(=O)[C@H](Cc2ccccc2)NC(=O)[C@H](CC(N)=O)NC(=O)[C@H](CCCCN)NC(=O)[C@@H](N)CSSC[C@@H](C(=O)O)NC(=O)[C@H](CO)NC1=O [Peptide 9, des-Ala^1,Gly^2 --SS] (H-CKNFFWKTFTSC-OH; disulfide 1-12)",–,–,–,–,60,231,61,–
"C[C@H](N)C(=O)NCC(=O)N[C@H]1CSSC[C@@H](C(=O)O)NC(=O)[C@H](CO)NC(=O)[C@H]([C@@H](C)O)NC(=O)[C@H](Cc2c[nH]cn2)NC(=O)[C@H]([C@@H](C)O)NC(=O)[C@H](CCCCN)NC(=O)[C@H](Cc2c[nH]c3ccccc23)NC(=O)[C@H](Cc2ccccc2)NC(=O)[C@H](Cc2ccccc2)NC(=O)[C@H](CC(N)=O)NC(=O)[C@H](CCCCN)NC1=O [Peptide 10, [His^11]--SS] (H-AGCKNFFWKTHTSC-OH; disulfide 3-14)",< 1,48,< 1,–,–,–,–,–
"C[C@H](N)C(=O)NCC(=O)N[C@H]1CSSC[C@@H](C(=O)O)NC(=O)[C@H](CO)NC(=O)[C@H]([C@@H](C)O)NC(=O)[C@H](CCC(=O)O)NC(=O)[C@H]([C@@H](C)O)NC(=O)[C@H](CCCCN)NC(=O)[C@H](Cc2c[nH]c3ccccc23)NC(=O)[C@H](Cc2ccccc2)NC(=O)[C@H](Cc2ccccc2)NC(=O)[C@H](CC(N)=O)NC(=O)[C@H](CCCCN)NC1=O [Peptide 12, [Glu^11]--SS] (H-AGCKNFFWKTETSC-OH; disulfide 3-14)",< 1,9,< 1,–,–,–,–,–
"C[C@H](N)C(=O)NCC(=O)N[C@H]1CSSC[C@@H](C(=O)O)NC(=O)[C@H](CO)NC(=O)[C@H]([C@@H](C)O)NC(=O)[C@H](Cc2ccccc2)NC(=O)[C@H]([C@@H](C)O)NC(=O)[C@H](CCCCN)NC(=O)[C@H](Cc2c[nH]c3ccccc23)NC(=O)[C@H](Cc2ccccc2)NC(=O)[C@H](Cc2ccccc2)NC(=O)[C@H](CCCCN)NC1=O [Peptide 13, des-Asn^5 --SS] (H-AGCKFFWKTFTSC-OH; disulfide 3-13)",–,–,–,–,4,11,10,< 1
"C[C@H](N)C(=O)NCC(=O)N[C@H]1CSSC[C@@H](C(=O)O)NC(=O)[C@H]([C@@H](C)O)NC(=O)[C@H](Cc2ccccc2)NC(=O)[C@H]([C@@H](C)O)NC(=O)[C@H](CCCCN)NC(=O)[C@H](Cc2c[nH]c3ccccc23)NC(=O)[C@H](Cc2ccccc2)NC(=O)[C@H](Cc2ccccc2)NC(=O)[C@H](CC(N)=O)NC(=O)[C@H](CCCCN)NC1=O [Peptide 14, des-Ser^13 --SS] (H-AGCKNFFWKTFTC-OH; disulfide 3-13)",< 1,9,< 1,2,–,–,–,–
"C[C@H](N)C(=O)NCC(=O)N[C@H]1CSSC[C@@H](C(=O)O)NC(=O)[C@H](CO)NC(=O)[C@H]([C@@H](C)O)NC(=O)[C@H](Cc2ccccc2)NC(=O)[C@H]([C@@H](C)O)NC(=O)[C@H](CCCCN)NC(=O)[C@H](Cc2c[nH]c3ccccc23)NC(=O)[C@H](Cc2ccccc2)NC(=O)[C@H](Cc2ccccc2)NC(=O)[C@H](CC(N)=O)NC(=O)[C@@H](CCCCN)NC1=O [Peptide 15, [D-Lys^4]--SS]",–,–,–,–,22,139,1,1
"des-AA^1,2,[β-Nal^11 ]--SS [Peptide 11]",–,–,–,–,–,107,–,–
